From patent US8334382B2, “Substituted biaryl piperazinyl-pyridine analogues” (Neurogen Corporation, priority 2004, dated 2012) come the findings set out here.

This test concerns the target T1, human capsaicin receptor (Homo sapiens, UniProt Q8NER1).
T1 construct: expressed in transfected cells; host or cells: HEK293, stably transfected with pBK-CMV construct
The test is described as follows: Calcium mobilization assay, determination of antagonist activity. The class given is cell-based. Particulars: capsaicin at EC50; cells expressing human capsaicin receptor; Example 6. How it is done: A cDNA encoding full length human capsaicin receptor (SEQ ID NO:1, 2 or 3 of U.S. Pat. No. 6,482,611) is subcloned in the plasmid pBK-CMV (Stratagene, La Jolla, Calif.) for recombinant expression in mammalian cells.
Human embryonic kidney (HEK293) cells are transfected with the pBK-CMV expression construct encoding the full length human capsaicin receptor using standard methods. The transfected cells are selected for two weeks in media containing G418 (400 μg/ml) to obtain a pool of stably transfected cells. Independent clones are isolated from this pool by limiting dilution to obtain clonal stable cell lines for use in subsequent experiments.
Cells transfected with expression plasmids (as described in Example 4) and thereby expressing human capsaicin receptor are seeded and grown to 70-90% confluency in FALCON black-walled, clear-bottomed 96-well plates (#3904, BECTON-DICKINSON, Franklin Lakes, N.J.). The culture medium is emptied from the 96 well plates and FLUO-3 AM calcium sensitive dye (Molecular Probes, Eugene, Oreg.) is added to each well (dye solution: 1 mg FLUO-3 AM, 440 μL DMSO and 440 μl 20% pluronic acid in DMSO, diluted 1:250 in Krebs-Ringer HEPES (KRH) buffer (25 mM HEPES, 5 mM KCl, 0.96 mM NaH2PO4, 1 mM MgSO4, 2 mM CaCl2, 5 mM glucose, 1 mM probenecid, pH 7.4), 50 μl diluted solution per well). Plates are covered with aluminum foil and incubated at 37° C. for 1-2 h in an environment containing 5% CO2. After the incubation, the dye is emptied from the plates, and the cells are washed once with KRH buffer, and resuspended in KRH buffer.
To measure the ability of a test compound to agonize or antagonize a calcium mobilization response in cells expressing capsaicin receptors to capsaicin or other vanilloid agonist, the EC50 of the agonist capsaicin is first determined. An additional 20 μl of KRH buffer and 1 μl DMSO is added to each well of cells, prepared as described above. 100 μl capsaicin in KRH buffer is automatically transferred by the FLIPR instrument to each well. Capsaicin-induced calcium mobilization is monitored using either FLUOROSKAN ASCENT (Labsystems; Franklin, Mass.) or FLIPR (fluorometric imaging plate reader system; Molecular Devices, Sunnyvale, Calif.) instruments. Data obtained between 30 and 60 seconds after agonist application are used to generate an 8-point concentration response curve, with final capsaicin concentrations of 1 nM to 3 μM. KALEIDAGRAPH software (Synergy Software, Reading, Pa.) is used to fit the data to the equation: y=a*(1/(1+(b/x)^c)) to determine the 50% excitatory concentration (EC50) for the response. In this equation, y is the maximum fluorescence signal, x is the concentration of the agonist or antagonist (in this case, capsaicin), a is the Emax, b corresponds to the EC50 value and c is the Hill coefficient. Determination of Agonist Activity
Test compounds are dissolved in DMSO, diluted in 20 μl KRH buffer so that the final concentration of test compounds in the assay well is between 1 μM and 5 μM, and added to cells prepared as described above. The 96 well plates containing prepared cells and test compounds are incubated in the dark, at room temperature for 0.5 to 6 h. It is important that the incubation not continue beyond 6 h. Just prior to determining the fluorescence response, 100 μl capsaicin in KRH buffer at twice the EC50 concentration determined as described above is automatically added by the FLIPR instrument to each well of the 96 well plate for a final sample volume of 200 μl and a final capsaicin concentration equal to the EC50. The final concentration of test compounds in the assay wells is between 1 μM and 5 μM. […] The concentration of antagonist required to provide a 50% decrease, relative to the response observed in the presence of capsaicin and without antagonist, is the IC50 for the antagonist, and is preferably below 1 micromolar, 100 nanomolar, 10 nanomolar or 1 nanomolar.
(Calcium flux is commonly read through the fluorescence of an indicator in the cells.)

T1 sequence (Q8NER1 whole entry): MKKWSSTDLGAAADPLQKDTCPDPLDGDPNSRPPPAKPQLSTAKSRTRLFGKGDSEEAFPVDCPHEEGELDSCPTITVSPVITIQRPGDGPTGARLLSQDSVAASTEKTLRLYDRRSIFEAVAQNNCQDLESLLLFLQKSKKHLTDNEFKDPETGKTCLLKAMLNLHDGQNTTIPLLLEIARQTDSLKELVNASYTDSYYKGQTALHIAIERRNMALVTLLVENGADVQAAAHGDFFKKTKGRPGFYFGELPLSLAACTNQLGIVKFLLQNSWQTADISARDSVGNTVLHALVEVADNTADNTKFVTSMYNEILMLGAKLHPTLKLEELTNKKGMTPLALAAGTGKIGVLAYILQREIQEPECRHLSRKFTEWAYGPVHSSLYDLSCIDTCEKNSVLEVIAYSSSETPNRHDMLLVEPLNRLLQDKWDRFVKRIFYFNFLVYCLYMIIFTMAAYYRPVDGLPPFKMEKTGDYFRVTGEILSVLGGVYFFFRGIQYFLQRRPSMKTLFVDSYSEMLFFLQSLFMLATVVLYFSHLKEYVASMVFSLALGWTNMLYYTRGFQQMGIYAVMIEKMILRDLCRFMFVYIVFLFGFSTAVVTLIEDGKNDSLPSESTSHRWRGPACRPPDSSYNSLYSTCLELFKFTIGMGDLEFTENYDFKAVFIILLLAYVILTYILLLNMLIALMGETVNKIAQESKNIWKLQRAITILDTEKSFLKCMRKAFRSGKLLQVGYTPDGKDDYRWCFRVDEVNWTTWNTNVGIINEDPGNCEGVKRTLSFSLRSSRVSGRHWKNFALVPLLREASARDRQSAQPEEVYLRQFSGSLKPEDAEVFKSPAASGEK

The term IC50 denotes the concentration needed to halve the response being measured. `CCCN1CCN(c2nc(-c3ccc(F)c(Cl)c3)cc(N3CCN(c4ncc(C(=O)O)cc4Cl)CC3)n2)CC1` [Example 17, 5-Chloro-6-{4-[6-(3-chloro-4-fluoro-phenyl)-2-(4-propyl-piperazin-1-yl)-pyrimidin-4-yl]-piperazin-1-yl}-nicotinic acid]: the IC50 was not above 1000 nM.
With `CCOC(=O)c1cnc(N2CCN(c3cc(-c4ccc(F)c(Cl)c4)nc(N4CCCC4C)n3)[C@H](C)C2)c(Cl)c1` (stereo partly drawn) [Example 18, 5-Chloro-6-{4-[6-(3-chloro-4-fluoro-phenyl)-2-(2-methyl-pyrrolidin-l-yl)-pyrimidin-4-yl]-3-(R)-methyl-piperazin-1-yl}-nicotinic acid ethyl ester], the IC50 was not above 1000 nM.
For the compound `CC1CCCN1c1nc(-c2ccc(F)c(Cl)c2)cc(N2CCN(c3ncc(CN(C)C)cc3Cl)CC2)n1` (stereo not drawn) [Example 19, (5-Chloro-6-{4-[6-(3-chloro-4-fluoro-phenyl)-2-(2-methyl-pyrrolidin-l-yl)-pyrimidin-4-yl]-piperazin-1-yl}-pyridin-3-ylmethyl)-dimethyl-amine], the IC50 was not above 1000 nM.
The same measure for `COC(=O)c1cnc(N2CCN(c3cc(-c4ccc(F)c(Cl)c4)nc(N4CCCC4C)n3)CC2)c(Cl)c1` (centres unmarked) [Example 20, 5-Chloro-6-{4-[6-(3-chloro-4-fluoro-phenyl)-2-(2-methyl-pyrrolidin-1-yl)-pyrimidin-4-yl]-piperazin-1-yl}-nicotinic acid methyl ester]: not above 1000 nM; for `CC1CCCN1c1nc(-c2ccc(F)c(Cl)c2)cc(N2CCN(c3ncc(C(=O)O)cc3Cl)CC2)n1` (centres unmarked) [Example 21, 5-Chloro-6-{4-[6-(3-chloro-4-fluoro-phenyl)-2-(2-methyl-pyrrolidin-1-yl)-pyrimidin-4-yl]-piperazin-1-yl}-nicotinic acid]: not above 1000 nM.
As to `COc1ccc([N+](=O)[O-])c(N2CCN(c3cc(-c4ccc(F)c(Cl)c4)nc(N4CCCC4C)n3)CC2)n1` (centres unmarked) [Example 22, 4-(3-Chloro-4-fluoro-phenyl)-6-[4-(6-methoxy-3-nitro-pyridin-2-yl)-piperazin-1-yl]-2-(2-methyl-pyrrolidin-1-yl)-pyrimidine], the half-inhibitory concentration (IC50) is not above 1000 nM.
For `CCCN1CCN(c2nc(-c3ccc(F)c(Cl)c3)cc(N3CCN(c4ncc(C(=O)OCC)cc4Cl)CC3)n2)CC1` [Example 23, 5-Chloro-6-{4-[6-(3-chloro-4-fluoro-phenyl)-2-(4-propyl-piperazin-l-yl)-pyrimidin-4-yl] - piperazin-1-yl}-nicotinic acid ethyl ester] the value was not above 1000 nM; for `CC1CCCN1c1nc(-c2ccc(F)c(Cl)c2)cc(N2CCN(c3ncc(C(N)=O)cc3Cl)C[C@H]2C)n1` (stereo partly drawn) [Example 24, 5-Chloro-6-{4-[6-(3-chloro-4-fluoro-phenyl)-2-(2-methyl-pyrrolidin-1-yl)-pyrimidin-4-yl]-3-(R)-methyl-piperazin-l-yl}-nicotinamide], not above 1000 nM.
The same measure for `CC1CCCN1c1nc(-c2ccc(F)cc2)cc(N2CCN(c3ncc(C(=O)O)cc3Cl)CC2)n1` (centres unmarked) [Example 25, 5-Chloro-6-{4-[6-(4-fluoro-phenyl)-2-(2-methyl-pyrrolidin-1-yl)-pyrimidin-4-yl]-piperazin-1-yl}-nicotinic acid]: not above 1000 nM.
For `CC1CCCN1c1nc(-c2ccc(F)cc2)cc(N2CCN(c3ncc(CO)cc3Cl)CC2)n1` (centres unmarked) [Example 26, (5-Chloro-6-{4-[6-(4-fluoro-phenyl)-2-(2-methyl-pyrrolidin-1-yl)-pyrimidin-4-yl]-piperazin-1-yl}-pyridin-3-yl)-methanol] the value was not above 1000 nM; for `CCOC(=O)c1cnc(N2CCN(c3cc(-c4ccc(F)cc4)nc(N4CCCC4C)n3)[C@H](C)C2)c(Cl)c1` (stereo partly drawn) [Example 27, 5-Chloro-6-{4-[6-(4-fluoro-phenyl)-2-(2-methyl-pyrrolidin-1-yl)-pyrimidin-4-yl]-3-(R)-methyl-piperazin-1-yl}-nicotinic acid ethyl ester], not above 1000 nM.
